According to patent US10941122B2, “Diaminotriazine derivatives as herbicides” (BASF SE, priority 2014, dated 2021):

Columns and labels:
APESV = test: greenhouse pre-emergence herbicidal test; assay type: in vivo, Apera spica-venti; settings: pre-emergence method, application rate 0.250 kg/ha, scale from 0 to 100
From the text: (§1) The seeds of the test plants were sown separately for each species. For the pre-emergence treatment, the active ingredients, which had been suspended or emulsified in water, were applied directly after sowing by means of finely distributing nozzles. The containers were irrigated gently to promote germination and growth and subsequently covered with transparent plastic hoods until the plants had rooted. This cover caused uniform germination of the test plants, unless this had been impaired by the active ingredients. Depending on the species, the plants were kept at 10-25° C. or 20-35° C., respectively. The test period extended over 2 to 4 weeks. During this time, the plants were tended, and their response to the individual treatments was evaluated. Evaluation was carried out using a scale from 0 to 100. 100 means no emergence of the plants, or complete destruction of at least the aerial moieties, and 0 means no damage, or normal course of growth. A moderate herbicidal activity is given at values of at least 60, a good herbicidal activity is given at values of at least 70, and a very good herbicidal activity is given at values of at least 85. The plants used in the greenhouse experiments were of the following species: [table]

AMARE = test: greenhouse pre-emergence herbicidal test; assay type: in vivo, Amaranthus retroflexus; settings: pre-emergence method, application rate 0.250 kg/ha, scale from 0 to 100
From the text: as §1

## CC(C)(F)c1nc(N)nc(Nc2c(F)cccc2OC2CCCC2)n1 [Example 1, N2-[2-(Cyclopentoxy)-6-Fluoro-Phenyl]-6-(1-Fluoro-1-Methyl-Ethyl)-1,3,5-Triazine-2,4-Diamine]
APESV
  herbicidal activity against APESV: good (a good herbicidal activity is given at values of at least 70)
AMARE
  herbicidal activity against AMARE: very good (a very good herbicidal activity is given at values of at least 85)
